Data published in patent US20060106099A1, “Novel inhibitors of ubiquitin isopeptidases” (priority 2002, published 2006).
Read-outs that look alike come from different tables or passages of the source.

Assays:
ubiquitin isopeptidases [1] = test: Ubiquitin isopeptidase activity, Ub-PEST substrate, lysates of treated RKO and HCT 116 cells; assay type: cell-based, human; settings: cells treated 6, 20 or 60 μM, 12 h
How it was run: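 RKO and HCT 116 cells (6×10^5) were treated with 0–60 μM compound for 12 h at 37 °C, then lysed in HEPES/EDTA/CHAPS/5 mM ATP, pH 7.5. Lysates at 0.3 mg/mL protein were incubated with 50 μg/mL Ub-PEST for 45 min at 25 °C. Released 8.5 kDa ubiquitin was quantified by anti-ubiquitin western blot densitometry relative to vehicle (100%).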

ubiquitin isopeptidases [2] = test: Ubiquitin isopeptidase activity, z-LRGG-AMC substrate, lysates of treated RKO and HCT 116 cells; assay type: cell-based, human; settings: cells treated 6, 20 or 60 μM, 12 h
How it was run: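 RKO and HCT 116 cells were treated 12 h at 37° C with 6, 20 or 60 μM compound. Lysates at 0.5 mg/mL were pre-incubated with 30 μM MG115 (30 min, 4° C) to block proteasome, then given z-LRGG-AMC for 3 h at 37° C. Cleaved AMC was read fluorometrically.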

[3] = tested on: polyubiquitin conjugates in RKO-E6 cells; test: Accumulation of polyubiquitin in RKO-E6 cells (immunoblot); assay type: cell-based, human; settings: EC80 or 60 μM, 6-24 h
How it was run: (§1)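 RKO-E6 cells exposed at 37° C for 6, 12 or 24 h to compound concentrations giving 80% cell death at 48 h; for p53, RKO and RKO-E6 cells treated 6 h. Lysates (12.5 μg protein) immunoblotted for ubiquitin or p53 with ECL detection; p53 quantified by densitometry as RKO-E6/RKO ratio.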

p53 = p53 accumulation, ratio RKO-E6 cells/RKO cells (immunoblot, densitometry); assay type: cell-based, human; settings: 6 h; etoposide 50 μM, MG115, NSC-302979, DBA 20 μM, others 60 μM
How it was run: as §1

RKO cells [4] = tested on: RKO cells
Protocol: (§2) Cell viability was measured with MTT reagent as described in materials and methods.
(§3) Cell viability was detected by the MTT assay. Briefly, 1×10^5 cells were incubated per well of a sterile, 96-well assay plate with 0-60 μM of test compounds for 48 hours. MTT reagent was added to each well, final concentration of 0.5 mg/mL, and incubated for an additional 3 hours. The media was aspirated and remaining MTT reagent from each well and added 100 μL of HCl:isopropanol (1:24). The absorbance of each sample was measured at 405 nm.

RKO-E6 cells [5] = tested on: RKO-E6 cells
Protocol: as §2, §3

[6] = tested on: cell lines with mutant/deleted p53; settings: mean of 41-42 cell lines with mutant/deleted p53; read-out: Mutant p53 Mean LC50; cited from earlier work
RKO cells [7] = test: MTT cell viability assay, RKO cells; settings: for cell death in RKO compared with RKO-E6 cells: 48 h, MTT, isogenic pair
Protocol: as §2, §3

RKO-E6 cells [8] = test: MTT cell viability assay, RKO-E6 cells; settings: cell viability assay at 48 h, RKO-E6 cells
Protocol: as §2, §3

HCT 116 +/+ cells = test: MTT cell viability assay, HCT 116 p53 +/+ cells; settings: 48 h, MTT; for cell death in HCT 116 +/+ compared with HCT 116 −/− cells: isogenic pair
Protocol: as §2, §3

[9] = cited from earlier work
[10] = in vivo; cited from earlier work

For `C=C1C(=O)C2=CC1CCC(=O)C1(C)CCC(OC(C)=O)C(C)(C)C1CC2O` (stereo not shown) [NSC-302979, shikoccin], the “inhibition of isopeptidase cleavage of Ub-PEST” value (ubiquitin isopeptidases [1]) was “inhibited isopeptidase activity in a concentration dependent manner”, the “inhibition of z-LRGG-AMC hydrolysis by ubiquitin isopeptidases” value (ubiquitin isopeptidases [2]) was “inhibited ubiquitin isopeptidase activity” and the “cellular accumulation of polyubiquitin conjugates” value [3] was “protein species with polyubiquitin conjugation accumulated in cells”. The “ratio of p53 protein [RKO-E6 cells/RKO cells]” value (p53) was “approached unity”, the EC50 (RKO cells [4]) was 1.8 ± 0.1 µM and the EC50 (RKO-E6 cells [5]) was 1.4 ± 0.1 µM. For the same compound, the CC50 [6] was 66 µM, the “cell death in RKO compared with RKO-E6 cells” value (RKO cells [7]) was “caused cell death with equal potency and efficacy” and the “EC80, concentration that gave 80% cell death” value (RKO-E6 cells [8]) was 3.5 µM. For the same compound, the “cell death in HCT 116 +/+ compared with HCT 116 −/− cells” value (HCT 116 +/+ cells) was “caused cell death with equal potency” and the EC50 (HCT 116 +/+ cells; read-out: Cytotoxic Potency (EC50) HCT +/+) was 2.7 ± 0.2 µM.

In the case of `CCCCC[C@H](O)C/C=C1/C(=O)C=C[C@@H]1C/C=C\CCCC(=O)O` [Δ12-PGJ2, Δ12-prostaglandin J2], the “inhibition of isopeptidase cleavage of Ub-PEST” value (ubiquitin isopeptidases [1]) is reported as “inhibited isopeptidase activity in a concentration dependent manner”, the “inhibition of z-LRGG-AMC hydrolysis by ubiquitin isopeptidases” value (ubiquitin isopeptidases [2]) is reported as “inhibited ubiquitin isopeptidase activity” and the “cellular accumulation of polyubiquitin conjugates” value [3] is reported as “protein species with polyubiquitin conjugation accumulated in cells”. The “ratio of p53 protein [RKO-E6 cells/RKO cells]” value (p53) was “approached unity”, the EC50 (RKO-E6 cells [5]) was 9.2 ± 1 µM and the “t1/2 of metabolism to an inactive compound in serum” value [9] was under 5 min. The “cross-resistance with cisplatin and adriamycin” value [10] was “little cross-resistance with cisplatin and adriamycin”, the “cell death in RKO compared with RKO-E6 cells” value (RKO cells [7]) was “caused cell death with equal potency and efficacy” and the EC50 (RKO cells [7]; read-out: EC50 in RKO cell lines, prostaglandins for comparison, comparison values in the text) was 9 µM. For the same compound, the “EC80, concentration that gave 80% cell death” value (RKO-E6 cells [8]) was 13.2 µM and the “cell death in HCT 116 +/+ compared with HCT 116 −/− cells” value (HCT 116 +/+ cells) was “caused cell death with equal potency”.
